Earlier results as cited in US10758505B2, “Therapeutic compositions and methods” (Innovus Pharmaceuticals, Inc., priority 2017, dated 2020).

Assays:
[1] = molecular target: P-glycoprotein (Homo sapiens, UniProt P08183)
[2] = molecular target: human CYP3A4 (Homo sapiens, UniProt P08684)
Sequence of human CYP3A4 (P08684 whole entry): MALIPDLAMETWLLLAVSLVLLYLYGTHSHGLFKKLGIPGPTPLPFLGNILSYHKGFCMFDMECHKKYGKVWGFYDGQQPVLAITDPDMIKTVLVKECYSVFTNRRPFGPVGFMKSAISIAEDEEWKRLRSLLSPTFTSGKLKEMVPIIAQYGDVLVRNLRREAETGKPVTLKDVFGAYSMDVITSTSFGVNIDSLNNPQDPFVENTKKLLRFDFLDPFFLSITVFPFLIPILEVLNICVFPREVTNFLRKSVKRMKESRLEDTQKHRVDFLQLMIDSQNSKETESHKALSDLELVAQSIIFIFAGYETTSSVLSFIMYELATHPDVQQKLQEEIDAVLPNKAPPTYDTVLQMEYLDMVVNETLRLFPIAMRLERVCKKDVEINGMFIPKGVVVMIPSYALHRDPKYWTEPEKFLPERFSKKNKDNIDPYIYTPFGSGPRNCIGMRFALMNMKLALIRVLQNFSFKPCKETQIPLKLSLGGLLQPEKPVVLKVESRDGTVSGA

Sequence of P-glycoprotein (P08183 whole entry): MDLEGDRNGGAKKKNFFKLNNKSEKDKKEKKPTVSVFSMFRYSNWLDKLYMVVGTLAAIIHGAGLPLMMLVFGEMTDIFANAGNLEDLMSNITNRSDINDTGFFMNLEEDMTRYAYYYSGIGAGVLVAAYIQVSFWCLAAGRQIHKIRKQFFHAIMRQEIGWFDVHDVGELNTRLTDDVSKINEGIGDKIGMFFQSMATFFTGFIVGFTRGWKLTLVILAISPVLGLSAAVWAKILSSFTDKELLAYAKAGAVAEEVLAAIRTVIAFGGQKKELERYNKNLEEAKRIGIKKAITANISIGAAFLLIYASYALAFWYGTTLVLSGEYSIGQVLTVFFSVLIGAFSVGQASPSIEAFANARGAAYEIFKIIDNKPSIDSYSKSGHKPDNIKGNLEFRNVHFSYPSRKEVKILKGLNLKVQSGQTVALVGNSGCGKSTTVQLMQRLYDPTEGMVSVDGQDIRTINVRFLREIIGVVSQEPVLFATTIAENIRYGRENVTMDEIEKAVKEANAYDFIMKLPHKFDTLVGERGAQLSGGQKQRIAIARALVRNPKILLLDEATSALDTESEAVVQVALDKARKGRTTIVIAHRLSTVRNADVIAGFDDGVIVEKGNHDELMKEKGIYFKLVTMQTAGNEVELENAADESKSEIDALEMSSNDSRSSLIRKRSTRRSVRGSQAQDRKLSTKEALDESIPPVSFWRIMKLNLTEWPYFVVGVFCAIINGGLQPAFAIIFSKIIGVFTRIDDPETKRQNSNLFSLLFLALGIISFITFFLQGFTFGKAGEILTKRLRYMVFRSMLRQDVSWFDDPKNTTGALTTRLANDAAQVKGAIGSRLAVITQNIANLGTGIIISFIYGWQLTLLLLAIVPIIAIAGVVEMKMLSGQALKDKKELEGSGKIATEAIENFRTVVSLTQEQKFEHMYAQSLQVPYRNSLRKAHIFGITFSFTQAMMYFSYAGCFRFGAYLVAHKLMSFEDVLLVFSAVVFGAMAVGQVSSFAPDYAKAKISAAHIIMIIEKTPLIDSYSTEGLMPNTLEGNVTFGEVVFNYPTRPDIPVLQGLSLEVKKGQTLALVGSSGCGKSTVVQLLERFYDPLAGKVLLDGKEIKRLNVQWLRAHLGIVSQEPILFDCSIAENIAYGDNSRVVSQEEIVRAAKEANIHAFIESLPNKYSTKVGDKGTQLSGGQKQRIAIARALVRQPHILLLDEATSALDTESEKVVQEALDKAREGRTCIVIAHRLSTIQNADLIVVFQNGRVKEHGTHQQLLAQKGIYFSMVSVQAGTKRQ

inhibition of P-glycoprotein [1]: inhibits
inhibition of human CYP3A4 [2]: inhibits
SMILES: O=C(/C=C/C=C/c1ccc2c(c1)OCO2)N1CCCCC1 [Bioperine®, (2E,4E)-5-(1,3-benzodioxol-5-yl)-1-(piperidin-1-yl)penta-2,4-dien-1-one]
